Test results: patent publication US20100279984A1, “PHARMACEUTICAL COMPOSITIONS CONTAINING BENFOTIAMINE AND ONE OR ONE MORE PHARMACEUTICALLY ACTIVE AGENTS FOR THE TREATMENT OF PAIN CONDITIONS OF NEUROPATHIC ORIGIN” (Merck Patent GmbH, priority 2007, published 2010)

Key:
[1] = system: tactile allodynia induced by ligation of L5 and L6 spinal nerves; experiment: Antiallodynic activity: tactile allodynia (von Frey paw withdrawal threshold) in L5/L6 spinal nerve ligated rats (Kim and Chung model); format: in vivo, female Wistar rats; settings: for ED30 (dose producing 30% of antiallodynia): drug alone, 60 min before threshold evaluation, ±SEM; for ED30 (dose producing 30% of antiallodynia) / reduction of tactile allodynia (in words): spinal nerve ligated rats; for reduction of tactile allodynia (in words): P<0.05
Description: The purpose of this study was to assess the possible synergistic interaction between gabapentin and benfotiamine in a neuropathic pain model in the rat (Kim, S. H. and Chung, J. M.: Pain 50: 355-363 (1992)). In addition, the possible synergistic interaction between gabapentin and benfotiamine was also assessed in rats with neuropathic pain. Neuropathic pain was induced by ligation of the left L5 and L6 spinal nerves of female Wistar rats. Tactile allodynia was determined by measuring paw withdrawal in response to probing with a series of calibrated von Frey filaments.
Female Wistar rats aged 6-7 weeks (weight range, 120-140 g) from our own breeding facilities were used in this study. Animals had free access to food and drinking water before experiments. Efforts were made to minimize animal suffering and to reduce the number of animals used. All experiments followed the Guidelines on Ethical Standards for Investigation of Experimental Pain in Animals (Zimmermann. M.: Pain 16: 109-110 (1983)). Additionally, the study was approved by the Institutional Animal Care and Use Committee (Centro de Investigacion y de Estudios Avanzados del Instituto Politecnico Nacional, Mexico, D.F., Mexico).
Evaluation of antiallodynic activity: Rats were prepared according to the method of Kim and Chung (Kim, S. H. and Chung, J. M.: Pain 50: 355-363 (1992)). Animals were anesthetized with a mixture of ketamine/xylazine (45-12 mg/kg, i.p.). After surgical preparation and exposure of the dorsal vertebral column, the L5 and L6 spinal nerves were exposed and tightly ligated with 6-0 silk suture distal to the dorsal root ganglion. For sham operated rats, the nerves were exposed but not ligated. The incisions were closed, and the animals were allowed to recover for 15 days. […] Tactile allodynia was determined by measuring paw withdrawal in response to probing with a series of calibrated fine filaments (von Frey filaments). The strength of the von Frey stimuli range from 0.4 to 15 g. Withdrawal thresholds were determined by increasing and decreasing stimulus strength eliciting paw withdrawal (Chaplan, S. R., et al.: J. Neurosci Meth. 53: 55-63 (1994)). All nerve-ligated rats were verified to be allodynic (responding to a stimulus of less than 4 g).
(§1) Drugs: Gabapentin was purchased from Research Biochemicals International (Natick, Mass., USA). Benfotiamine was purchased from Sigma. Gabapentin and benfotiamine were dissolved in saline and given at a volume ratio of 4 ml/kg. Study design: Rats received the oral administration of saline or increasing doses of gabapentin (30-300 mg/kg), benfotiamine (75-300 mg/kg) or the combination of gabapentin and benfotiamine 60 min before evaluation of threshold in spinal nerve injured rats. Observer was unaware of the treatment in each animal. Rats in all groups were tested for possible side effects such as reduction of righting, stepping, corneal and pinna reflexes before and after drug treatment.
Data analysis and statistics: Curves were constructed plotting the threshold for paw withdrawal as a function of time. Threshold for paw withdrawal was also expressed as the % of antiallodynia. % antiallodynia was calculated with the following equation: % antiallodynia=((area under the withdrawal theshold against time curve (AUC) of the treatment−AUC saline)/(AUC sham−AUC saline)×100. The dose-response curves were fitted using least-squares linear regression and ED30 and its standard error (SEM) were calculated according to the method described by Tallarida (Tallarida, R. J.: Drug Synergism and Dose-Effect Data Analysis. 1st Ed., New York, Chapman and Hall/CRC, pp 1-72 (2000)).
For evaluation of the interaction between gabapentin and benfotiamine, isobolograms were constructed using ED30 values obtained when the drugs were administered alone or combined. We used ED30 instead of ED50 values because benfotiamine was not able to reach more than 30% of antiallodynia in the model. […]

[2] = system: righting, stepping, corneal and pinna reflexes; experiment: Side effect testing: righting, stepping, corneal and pinna reflexes before and after drug treatment; format: in vivo, female Wistar rats
Description: as §1

| SMILES | antiallodynic effect compared with thiamine (in words) ([1]; oral administration, FIG. 5) | ED30 (dose producing 30% of antiallodynia) ([1]; oral administration) | reduction of tactile allodynia (in words) ([1]; oral administration) | % of antiallodynia reached in the model ([1]; oral benfotiamine 75-300 mg/kg, reason for using ED30 instead of ED50) | effect on assessed reflexes (righting, stepping, corneal, pinna) ([2]; rat, in vivo, po) | maximal antiallodynic effect ([1]; oral, at 300 mg/kg) | effect on assessed reflexes (righting, stepping, corneal, pinna) ([2]; oral, at the selected doses) |
| --- | --- | --- | --- | --- | --- | --- | --- |
| C/C(=C(\CCOP(=O)(O)O)SC(=O)c1ccccc1)N(C=O)Cc1cnc(C)nc1N [Benfotiamine] | higher antiallodynic effect than thiamine | 47.4 ± 10 mg/kg | modest dose-dependent reduction | ≤ 30% | no evidence of modification of assessed reflexes |  |  |
| NCC1(CC(=O)O)CCCCC1 [Gabapentin] |  | 16.6 ± 2.6 mg/kg | reduced in a dose-dependent manner |  |  | 100% | No reduction in the assessed reflexes |
